Reference: patent publication US4308249A, “Radiopharmaceutical complexes of N-(tri-substituted alkyl)-iminodiacetic acids” (priority 1979, dated 1981)

Tests used:
[1] = Disposition of radioactivity in female beagle dog after i.v. chelate, Anger camera scintigraphy (Tables 2 and 3, FIG. 1); type: in vivo; parameters: key to Relative Distribution of Chelate: Vascular / Relative Distribution of Chelate: Liver / Relative Distribution of Chelate: Gallbladder: -: no statistically significant measured radioactivity; ±: relative amounts of measured radioactivity; +: relative amounts of measured radioactivity; ++: relative amounts of measured radioactivity; +++: the maximum measured radioactivity; conditions: for Relative Distribution of Chelate: Gallbladder / Relative Distribution of Chelate: Liver / Relative Distribution of Chelate: Vascular: i.v.
Description: (§1) This procedure used with the rabbit was repeated with additional anesthetized animals; a female beagle dog weighing 9.25 kilograms, and a female rhesus monkey weighing 7.9 kilograms. Again 0.1 to 1.0 milliliter of the solution containing 0.5 to 5 milligrams of the same chelate and prepared as in Examples 1 and 2 was administered in each case. One difference was that unlike the case of the rabbit, the chelate solution was injected intravenously in the saphenous vein of the dog or monkey. In separate tests with the female beagle, (1) a solution having 1.13 mCi of the chelate and (2) a solution having a 3.10 mCi of the chelate were administered, and the disposition of radioactivity in the dog was monitored for one hour and 3 hours, respectively. In addition, FIG. 1 represents results of the test involving administration of 3.10 mCi of radioactive chelate to the female beagle dog.
(§2) At various times after administration of a solution of a chelate of this invention which are indicated in Tables 1-4, scintiscan photographs and video tape recordings were taken of the rabbit, female beagle and monkey using the Anger camera. This instrument was a Pho-Gamma LFOV Scintillation Camera System, Model 6413, fitted with a Model 3137 Vari-Back Camera, a Model 3122 Data-Store/Playback System and a Model 27851 Analog-Digital/Digital-Analog Converter (all Searle Radiographics, Inc.). This entire system was interfaced with a Xerox 530 computer (Xerox Corp., Minneapolis, Minn.) which was programmed to record net counts per unit of time and percents of total counts in individual organs and to plot organ radioactivity versus time and to separate the radioactivity of the gallbladder from the radioactivity of the liver. The camera was operated with a 140 keV high resolution Type II converging collimator using a 20 percent technetium-99 m window. Generally 400,000 counts were accumulated on each scintiscan using both video tape and self-developing film, with the animal in the full ventral position. The photographs represented a visualization of the anatomic relationships in the hepatobiliary system.
(§3) The video tape was processed by computer for quantification of the distribution of the technetium-99 m chelate radioactivity in the organs of the animals. Tables 1-4 contain semi-quantitative representations of the distribution of radioactivity in the organs of the test animals calculated from the scintiscans. In Tables 1-4, (-), (±), (+), (++) and (+++) indicate relative amounts of measured radioactivity ranging from (-) for no statistically significant measured radioactivity to (+++) for the maximum measured radioactivity.
The disappearance of the radioactive chelate from the liver and its appearance in the gallbladder of the female beagle as well as the presence of the radioactive chelate in the total hepatobiliary system of the female beagle was calculated from video tape measurements by the computer and are plotted as percentages of total radioactivity administered in the form of the radioactive chelate versus time after administration in FIG. 1. At about 120 minutes after administration, about 75 percent of the total radioactivity administered was concentrated in the gallbladder, and in excess of 90 percent of the total dose of the radioactive chelate was in the hepatobiliary system. Approximately 50 percent of the radioactive chelate in the total hepatobiliary system had passed from the liver into the gallbladder within about 45 minutes after administration.

[2] = Disposition of radioactivity in rabbit after i.v. chelate, Anger camera scintigraphy (Table 1); type: in vivo, New Zealand rabbit; parameters: key to Relative Distribution of Chelate: Vascular / Relative Distribution of Chelate: Liver / Relative Distribution of Chelate: Gallbladder / Relative Distribution of Chelate: Intestine: -: no statistically significant measured radioactivity; ±: relative amounts of measured radioactivity; +: relative amounts of measured radioactivity; ++: relative amounts of measured radioactivity; +++: the maximum measured radioactivity
Description: (§4) A volume of a solution of the chelate of technetium-99 m and N-(3-cyano-3,3-diphenylpropyl)-iminodiacetic acid prepared as in Examples 1 and 2 in the range of 0.1 to 1.0 milliliter and having a radioactivity of 1.2 millicuries and containing 0.5 to 5 milligrams of the chelate was administered intravenously to an anesthetized New Zealand rabbit weighing about 3 kilograms using a 1 milliliter tuberculin syringe connected to a #23 gauge indwelling cannula inserted into a marginal ear vein. The rabbit was positioned in a full ventral position for four hours during which time the disposition of the radioactivity in the rabbit in this position was monitored using a computer-augmented Anger camera.
as §2, §3

[3] = Whole blood clearance of radioactivity in male mongrel dog, gamma spectrometer (FIG. 3); type: in vivo
Description: The procedures for injecting and taking and analyzing blood samples from the female beagle were repeated with a male mongrel dog weighing 14.1 kilograms, and the results are presented in FIG. 3. In this case, a sample of 0.1 to 1.0 milliliter of a solution of the chelate of technetium-99 m and N-(3-cyano-3,3-diphenylpropyl)-iminodiacacetic acid prepared as in Examples 1 and 2 and having a radioactivity of 3.08 mCi and containing 0.5 to 5 milligrams of the chelate was administered. In this case, the radioactivity of one milliliter samples of whole blood was measured.
(§5) The gamma spectrometer employed was a Model 1185 Gamma Scintillation Spectrometer (Searle Analytic Inc., Des Plaines, Ill.). One milliliter samples of plasma or whole blood were analyzed for technetium-99 m, and samples were counted for 1 minute. FIGS. 2 and 3 show the radioactivity present in the plasma or whole blood, respectively, versus the time in hours after administration of the chelate to the animals. As determined by the computer, curves A and B were the best fitting curves passing through the plots of experimentally measured radioactivities. […] This illustrates that, after being distributed throughout the body the chelate of this invention is cleared relatively quickly from the […].

[4] = Plasma clearance of radioactivity in female beagle, gamma spectrometer (FIG. 2); type: in vivo, female beagle dog
Description: In addition, periodically during the time of monitoring the distribution of radioactivity in the female beagle, blood samples were removed from the jugular vein of the animal and collected in vacuum tubes containing the disodium salt of ethylendiaminetetraacetic acid and the radioactivity of one milliliter samples of plasma was measured in a gamma spectrometer.
as §5

[5] = Organ radioactivity and imaging in test animals (all species) after i.v. chelate; type: in vivo, rabbit, dog, monkey
Description: as §4, §1
(§6) In the test using the female rhesus monkey, 0.1 to 1.0 milliliter of a solution of the chelate of technetium-99 m and N-(3-cyano-3,3-diphenylpropyl)-iminodiacetic acid prepared as in Examples 1 and 2 and having a radioactivity of 1.23 mCi and containing 0.5 to 5 milligrams of the same chelate was administered and the disposition of the radioactive material in the monkey was monitored for one hour.
as §2

[6] = Urinary excretion of radioactivity in male mongrel dog; type: in vivo; conditions: through 2 hours after administration
[7] = Disposition of radioactivity in female rhesus monkey after i.v. chelate, Anger camera scintigraphy (Table 4); type: in vivo; parameters: key to Relative Distribution of Chelate: Vascular / Relative Distribution of Chelate: Liver / Relative Distribution of Chelate: Gallbladder / Relative Distribution of Chelate: Intestine: -: no statistically significant measured radioactivity; ±: relative amounts of measured radioactivity; +: relative amounts of measured radioactivity; ++: relative amounts of measured radioactivity; +++: the maximum measured radioactivity
Description: as §1, §6, §2, §3

[8] = female beagle, about 120 minutes after administration
[9] = female beagle, 1.13 mCi (Table 2), minutes after administration: 1, 10, 20, 30, 40, 50, 60
[10] = female beagle, 3.10 mCi (Table 3), minutes after administration: b87 10, b88 25, b89 35, b90 65, b91 102, b92 160
[11] = i.v., 1.2 mCi, minutes after administration: 0.5, 3, 10, 20, 30, 60, 120, 180, 240
[12] = within 120 minutes after administration
[13] = test animals, first 3 hours after administration
[14] = i.v., 1.23 mCi, minutes after administration: 1, 10, 20, 30, 40, 50, 60

Q: Which “administered chelate appeared in the liver” value ([1]; dog, within 15 minutes after administration) does the source give for “chelate of technetium-99 m and N-(3-cyano-3,3-diphenylpropyl)-iminodiacetic acid” here?
A: more than 70%

Q: What about the “appearance of the chelate in the gallbladder compared with rabbit” value ([1]; female beagle) of the same substance?
A: slower than in the case of the rabbit

Q: And the “excretion of the chelate from the gallbladder into the intestine compared with rabbit or monkey” value ([1]; female beagle)?
A: slower in the female beagle than either in the rabbit or monkey

Q: What about the “route of clearance from the vascular system” value (from here on “route of clearance”) ([1]; female beagle) of the same substance?
A: exclusively by the liver and biliary excretion

Q: What about the “total dose of the radioactive chelate in the hepatobiliary system” value [1, 8] of the same substance?
A: > 90%

Q: And the “total radioactivity administered concentrated in the gallbladder” value [1, 8]?
A: about 75%

Q: What about the “Relative Distribution of Chelate: Gallbladder” value [1, 9] of the same substance?
A: - and + and ++ and +++

Q: What about the “Relative Distribution of Chelate: Liver” value [1, 9] of the same substance?
A: ++ and +++ and +

Q: What about the “Relative Distribution of Chelate: Vascular” value [1, 9] of the same substance?
A: ++ and -

Q: And the “Relative Distribution of Chelate: Gallbladder” value [1, 10]?
A: - and + and ++ and +++

Q: And the “Relative Distribution of Chelate: Liver” value [1, 10]?
A: +++ and ++ and + and ± and -

Q: What about the “Relative Distribution of Chelate: Vascular” value [1, 10] of the same substance?
A: + and -

Q: What about the “radioactive chelate in the total hepatobiliary system passed from the liver into the gallbladder” value ([1]; female beagle, within about 45 minutes after administration) of the same substance?
A: Approximately 50%

Q: What about the “administered radioactivity accumulated in the hepatobiliary system” value ([1]; female dog, during the first 30 minutes) of the same substance?
A: more than 85%

Q: What about the “route of clearance” value [2] of the same substance?
A: solely by the liver and biliary excretion

Q: What about the “time to appearance of chelate in the gallbladder” value [2] of the same substance?
A: ≤ 3 min

Q: What about the “Relative Distribution of Chelate: Gallbladder” value [2, 11] of the same substance?
A: - and + and ++

Q: And the “Relative Distribution of Chelate: Intestine” value [2, 11]?
A: - and + and ++ and +++

Q: And the “Relative Distribution of Chelate: Liver” value [2, 11]?
A: +++ and ++ and + and ± and -

Q: What about the “Relative Distribution of Chelate: Vascular” value [2, 11] of the same substance?
A: ++ and -

Q: What about the “radioactivity of heart, aorta, kidneys and liver” value ([2]; within 0.5 minutes after administration) of the same substance?
A: strongly radioactive

Q: And the “amount in the gallbladder” value [2, 12]?
A: a relatively small amount

Q: What about the “amount of chelate in the intestine” value [2, 12] of the same substance?
A: the bulk of the chelate

Q: And the “radioactivity in the hepatic parenchyma” value [2, 12]?
A: no measurable radioactivity

Q: What about the clearance kinetics [3] of the same substance?
A: bi-exponential decay

Q: What about the “half time of distributive phase of clearance” value ([3]; 3.08 mCi) of the same substance?
A: 0.13 h

Q: What about the “half time of elimination phase of clearance” value ([3]; 3.08 mCi) of the same substance?
A: 3.5 h

Q: What about the clearance kinetics [4] of the same substance?
A: bi-exponential decay

Q: What about the “half time of distributive phase of clearance” value [4] of the same substance?
A: 0.1 h

Q: And the “half time of elimination phase of clearance” value [4]?
A: 1.5 h

Q: And the “distribution throughout the cardiovascular system” value ([5]; after intravenous administration)?
A: rapidly distributed throughout the cardiovascular system

Q: What about the “imaging of liver and gallbladder” value ([5]; all species, first 3 hours after administration) of the same substance?
A: in all species the conformation of these organs was easily seen and distinguished

Q: What about the urinary excretion ([5]; in vivo) of the same substance?
A: virtually no urinary excretion

Q: What about the “ratio of measured radioactivity in the gallbladder to measured background radioactivity” value [5, 13] of the same substance?
A: 150-200 to 1

Q: What about the “ratio of measured radioactivity of the liver to measured background radiation” value [5, 13] of the same substance?
A: 10-20 to 1

Q: And the “total radioactivity administered found in the urine” value [6]?
A: less than 0.5%

Q: What about the “appearance of the chelate in the gallbladder compared with rabbit” value [7] of the same substance?
A: slower than in the case of the rabbit

Q: What about the “route of clearance” value [7] of the same substance?
A: exclusively by the liver and biliary excretion

Q: What about the “Relative Distribution of Chelate: Gallbladder” value [7, 14] of the same substance?
A: - and +

Q: And the “Relative Distribution of Chelate: Intestine” value [7, 14]?
A: - and + and ++ and +++

Q: What about the “Relative Distribution of Chelate: Liver” value [7, 14] of the same substance?
A: +++ and ++ and +

Q: What about the “Relative Distribution of Chelate: Vascular” value [7, 14] of the same substance?
A: + and -
